Assay results from patent publication US11072608B2, “Pesticidally active heterocyclic derivatives with sulphur containing substituents” (SYNGENTA PARTICIPATIONS AG, priority 2014, dated 2021).

Columns and labels:
Format in all cases: in vivo
[1] = test system: Spodoptera littoralis (Egyptian cotton leaf worm); assay: Example B1: activity against Spodoptera littoralis, cotton leaf disc spray; conditions: foliar, 72 h, application rate of 200 ppm, cotton leaf discs, L1 larvae, 3 days after infestation, read-out: control in at least one of the three categories (mortality, anti-feedancy or growth inhibition)
Description: Example B1: Activity Against Spodoptera littoralis (Egyptian Cotton Leaf Worm)
Cotton leaf discs were placed on agar in 24-well microtiter plates and sprayed with aqueous test solutions prepared from 10,000 ppm DMSO stock solutions. After drying the leaf discs were infested with five L1 larvae. The samples were assessed for mortality, anti-feedant effect, and growth inhibition in comparison to untreated samples 3 days after infestation. Control of Spodoptera littoralis by a test sample is when at least one of mortality, anti-feedant effect, and growth inhibition is higher than the untreated sample. The following compound gave an effect of at least 80% control in at least one of the three categories (mortality, anti-feedancy or growth inhibition) at an application rate of 200 ppm: P1, P4, P5, P8, P9, P10, P12 and P13.

[2] = test system: Spodoptera littoralis (Egyptian cotton leaf worm); assay: Example B2: activity against Spodoptera littoralis, systemic via lettuce on agar; conditions: 144 h, application rate of 12.5 ppm, Spodoptera eggs, 6 days after infestation, read-out: control in at least one of the three categories (mortality, anti-feedancy or growth inhibition)
Source text: Example B2: Activity Against Spodoptera Littoralis (Egyptian Cotton Leaf Worm)
Test compounds were applied by pipette from 10,000 ppm DMSO stock solutions into 24-well plates and mixed with agar. Lettuce seeds were placed on the agar and the multi well plate was closed by another plate which contains also agar. After 7 days the roots have absorbed the compound and the lettuce has grown into the lid plate. The lettuce leafs were now cut off into the lid plate. Spodoptera eggs were pipetted through a plastic stencil on a humid gel blotting paper and the plate closed with it. The samples were assessed for mortality, anti-feedant effect and growth inhibition in comparison to untreated samples 6 days after infestation. The following compound gave an effect of at least 80% control in at least one of the three categories (mortality, anti-feedancy or growth inhibition) at an application rate of 12.5 ppm: P1, P4, P9, P12 and P13.

[3] = test system: Plutella xylostella (diamond back moth); assay: Example B3: activity against Plutella xylostella, artificial diet; conditions: 120 h, application rate of 200 ppm, L2 larvae, 5 days after infestation, read-out: effect in at least one of the two categories (mortality or growth inhibition)
Description: Example B3: Activity Against Plutella xylostella (Diamond Back Moth)
24-well microtiter plates with artificial diet were treated with aqueous test solutions prepared from 10,000 ppm DMSO stock solutions by pipetting. After drying, the plates were infested with L2 larvae (10 to 15 per well). The samples were assessed for mortality and growth inhibition in comparison to untreated samples 5 days after infestation. The following compound gave an effect of at least 80% in at least one of the two categories (mortality or growth inhibition) at an application rate of 200 ppm: P1, P4, P5, P6, P8, P9, P10, P11, P12 and P13.

[4] = test system: Diabrotica balteata (corn root worm); assay: Example B4: activity against Diabrotica balteata, maize sprouts spray; conditions: 96 h, application rate of 200 ppm, L2 larvae, 4 days after infestation, read-out: effect in at least one of the two categories (mortality or growth inhibition)
Description: Example B4: Activity Against Diabrotica balteata (Corn Root Worm)
Maize sprouts, placed on an agar layer in 24-well microtiter plates were treated with aqueous test solutions prepared from 10,000 ppm DMSO stock solutions by spraying. After drying, the plates were infested with L2 larvae (6 to 10 per well). The samples were assessed for mortality and growth inhibition in comparison to untreated samples 4 days after infestation. The following compounds gave an effect of at least 80% in at least one of the two categories (mortality or growth inhibition) at an application rate of 200 ppm: P1, P4, P5, P6, P8, P9, P10, P11, P12 and P13.

[5] = test system: Myzus persicae (green peach aphid); assay: Example B5: activity against Myzus persicae, sunflower leaf disc spray; conditions: foliar, 144 h, application rate of 200 ppm, sunflower leaf discs, mixed ages, 6 days after infestation
Description: Example B5: Activity Against Myzus persicae (Green Peach Aphid)
Sunflower leaf discs were placed on agar in a 24-well microtiter plate and sprayed with aqueous test solutions prepared from 10,000 ppm DMSO stock solutions. After drying, the leaf discs were infested with an aphid population of mixed ages. The samples were assessed for mortality 6 days after infestation.

[6] = test system: Myzus persicae (green peach aphid); assay: Example B6: activity against Myzus persicae, sucrose solution through Parafilm; conditions: 120 h, test rate of 12 ppm, 5 days after infestation
Source text: Example B6: Activity Against Myzus persicae (Green Peach Aphid)
Test compounds from 10,000 ppm DMSO stock solutions were applied by pipette into 24-well microtiter plates and mixed with sucrose solution. The plates were closed with a stretched Parafilm. A plastic stencil with 24 holes was placed onto the plate and infested pea seedlings were placed directly on the Parafilm. The infested plate was closed with a gel blotting paper and another plastic stencil and then turned upside down. The samples were assessed for mortality 5 days after infestation.

[7] = test system: Euschistus heros (neotropical brown stink bug); assay: Example B8: activity against Euschistus heros, soybean leaf spray; conditions: 120 h, application rate of 200 ppm, N-2 nymphs, 5 days after infestation
Description: Example B8: Activity Against Euschistus heros (Neotropical Brown Stink Bug)
Soybean leaf on agar in 24-well microtiter plates were sprayed with aqueous test solutions prepared from 10,000 ppm DMSO stock solutions. After drying the leaf were infested with N-2 nymphs. The samples were assessed for mortality 5 days after infestation.

[8] = test system: Bemisia tabaci (cotton white fly); assay: Example B7: activity against Bemisia tabaci, cotton leaf disc spray; conditions: foliar, 144 h, application rate of 200 ppm, cotton leaf discs, adult white flies, 6 days after incubation
Description: Example B7: Activity Against Bemisia tabaci (Cotton White Fly)
Cotton leaf discs were placed on agar in 24-well microtiter plates and sprayed with aqueous test solutions prepared from 10,000 ppm DMSO stock solutions. After drying the leaf discs were infested with adult white flies. The samples were checked for mortality 6 days after incubation.

[9] = test system: Myzus persicae (green peach aphid); assay: Example B9: activity against Myzus persicae, roots of pea seedlings in test solution; conditions: 144 h, test rate of 24 ppm, 6 days
Description: Example B9: Activity Against Myzus persicae (Green Peach Aphid)
Roots of pea seedlings infested with an aphid population of mixed ages were placed directly into aqueous test solutions prepared from 10,000 DMSO stock solutions. The samples were assessed for mortality 6 days after placing seedlings into test solutions.

[10] = test system: Frankliniella occidentalis (western flower thrips); assay: Example B10: activity against Frankliniella occidentalis, sunflower leaf disc spray; conditions: foliar, 168 h, application rate of 200 ppm, sunflower leaf discs, mixed ages, 7 days after infestation
Description: Example B10: Activity Against Frankliniella occidentalis (Western Flower Thrips)
Sunflower leaf discs were placed on agar in 24-well microtiter plates and sprayed with aqueous test solutions prepared from 10,000 DMSO stock solutions. After drying the leaf discs were infested with a Frankliniella population of mixed ages. The samples were assessed for mortality 7 days after infestation.

[11] = test system: Thrips tabaci (onion thrips); assay: Example B11: activity against Thrips tabaci, sunflower leaf disc spray; conditions: foliar, 144 h, application rate of 200 ppm, sunflower leaf discs, mixed ages, 6 days after infestation
Description: Example B11: Activity Against Thrips tabaci (Onion Thrips)
Sunflower leaf discs were placed on agar in 24-well microtiter plates and sprayed with aqueous test solutions prepared from 10,000 ppm DMSO stock solutions. After drying the leaf discs were infested with a Thrips population of mixed ages. The samples were assessed for mortality 6 days after infestation.

CCSc1cc(C2CC2)cnc1-c1nc2cc(C(F)(F)F)cnc2n1C [Compound P1, 2-(5-cyclopropyl-3-ethylsulfanyl-2-pyridyl)-3-methyl-6-(trifluoromethyl)imidazo[4,5-b]pyridine]
≥ 80%: percent control (mortality, anti-feedancy or growth inhibition) at 200 ppm [1] | control at 12.5 ppm [2] | percent effect (mortality or growth inhibition) at 200 ppm [3] | percent effect (mortality or growth inhibition) at 200 ppm [4] | mortality at 200 ppm [5] | mortality at 12 ppm [6] | mortality at 200 ppm [7]

CCS(=O)(=O)c1cc(C2(C#N)CC2)cnc1-c1nc2cc(C(F)(F)F)cnc2n1C [Compound P9, 1-[5-ethylsulfonyl-6-[3-methyl-6-(trifluoromethyl)imidazo[4,5-b]pyridin-2-yl]-3-pyridyl]cyclopropanecarbonitrile]
≥ 80%: percent control (mortality, anti-feedancy or growth inhibition) at 200 ppm [1] | control at 12.5 ppm [2] | percent effect (mortality or growth inhibition) at 200 ppm [3] | percent effect (mortality or growth inhibition) at 200 ppm [4] | mortality at 200 ppm [5] | mortality at 200 ppm [8] | mortality at 200 ppm [7] | mortality at 24 ppm [9] | mortality at 200 ppm [10] | mortality at 200 ppm [11]
